This note sets out measurements from article PMC1851987, “Identification of the Endogenous Key Substrates of the Human Organic Cation Transporter OCT2 and Their Implication in Function of Dopaminergic Neurons” (PLoS ONE, 2007).

Changes are numbered by the printed parent chain. Marks after values point to notes of the source that are not given here.

What is called Km is the substrate concentration at which the rate is half of its maximum. What is called EC50 is the concentration that produces a half-maximal response.

Series [1] has as its target T1, OCT2 variant R400C (Homo sapiens, UniProt O15244, R400C/S270A).
T1 sequence (O15244 1-555 S270A/R400C): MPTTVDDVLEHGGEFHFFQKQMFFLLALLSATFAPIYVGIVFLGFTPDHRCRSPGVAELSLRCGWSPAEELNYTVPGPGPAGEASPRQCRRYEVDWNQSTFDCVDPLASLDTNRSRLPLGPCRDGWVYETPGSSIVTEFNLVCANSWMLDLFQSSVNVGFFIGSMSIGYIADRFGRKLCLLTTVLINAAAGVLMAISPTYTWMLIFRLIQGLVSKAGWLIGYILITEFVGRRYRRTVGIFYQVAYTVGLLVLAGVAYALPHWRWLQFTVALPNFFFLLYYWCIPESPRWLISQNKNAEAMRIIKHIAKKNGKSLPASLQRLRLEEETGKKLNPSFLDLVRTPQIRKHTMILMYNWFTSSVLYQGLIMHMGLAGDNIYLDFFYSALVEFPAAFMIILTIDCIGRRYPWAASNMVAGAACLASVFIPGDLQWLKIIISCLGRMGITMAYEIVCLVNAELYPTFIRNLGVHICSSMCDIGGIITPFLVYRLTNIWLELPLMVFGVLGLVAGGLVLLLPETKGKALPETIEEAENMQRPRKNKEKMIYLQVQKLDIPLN
In words: Specific uptake into HEK-293 cells transfected with OCT2 variant R400C (mutant 400C). The note with it: for Clin: incubation with 10 µmol/l. Here is the method: (§1) The cDNAs encoding the organic cation transporters OCT1 (GenBank accession no. NM_003057), OCT2 (NM_003058), and EMT (NM_021977) were amplified by RT-PCR from human liver, kidney, and placenta total RNA respectively, and subcloned into the eukaryotic expression vector pcDNA3. The cDNA encoding the norepinephrine transporter (SLC6A2) was kindly provided by C. Pifl (University of Vienna).
For uptake experiments, cells were grown on polystyrene dishes of 60 mm diameter to at least 80% confluence. Prior to addition of test compounds, culture medium was replaced by 3 ml HEPES-modified Krebs buffer (140.0 mmol/l NaCl, 5.0 mmol/l KCl, 2.0 mmol/l CaCl2, 1.0 mmol/l MgCl2, 10.0 mmol/l HEPES, and 5.0 mmol/l D-glucose, adjusted to pH 7.40), and cells were left to equilibrate for 60 min at 37°C. Uptake was terminated after indicated times by washing cells with ice-cold buffer. Cells were lysed with 1 ml of 4 mmol/l perchloric acid and lysates subjected to LC-MS-MS quantification. Cellular protein content was determined after solubilization of perchloric acid precipitates with 1 ml of […] NaOH using the bicinchoninic assay (BCA Protein Assay Kit, Pierce).
Chromatographic separations were performed on Hypercarb (5 µm, 50×2.1 mm; Thermo Electron), Aquasil C18 (3 µm, 100×4.6 mm; Thermo Electron), or Hilic columns (5 µm, 100×3.0 mm; Waters Atlantis) by isocratic or gradient elution using 0.1% aqueous formic acid (A) and acetonitrile or methanol (B) as solvent system. For quantification, SRM transitions of a precursor ion [M+H]^+ into a specific fragment ion (peak area ratios relative to IS) were recorded in positive ESI mode at 1.0–1.5 mTorr collision pressure and 10–40 eV collision energy. External calibration curves were obtained from serial dilutions of the analyte in 4 mmol/l HClO4 by linear or logistic regression. Detection limit was at least 0.001 nmol/mg protein.
Uptake versus time data were fitted by linear one-compartment kinetics: cin(t) = cin,∞·(1−e^−kex·t), where cin(t) represents intracellular free substrate concentration after time t (pmol/mg protein), cin,∞ extrapolated maximal intracellular free substrate concentration (pmol/mg protein), and kex efflux rate constant (1/min). Influx clearance was calculated as CLin = cin,∞/cex·kex (µl/mg protein/min), with cex extracellular free substrate concentration (pmol/µl). Statistical significance of differences between two treatments was evaluated by the unpaired two-tailed t-test or Mann-Whitney U-test, differences between more than two treatments by one-way ANOVA or Kruskal-Wallis test, as applicable. P<0.05 was considered statistically significant.

Series [2] deals with T2, OCT2 variant A270S (Homo sapiens, UniProt O15244).
T2 sequence (O15244 1-555): T1 sequence (O15244 1-555 S270A/R400C) with A270S, C400R
In words: Specific uptake into HEK-293 cells transfected with OCT2 variant A270S. How it is done:
as §1
For uptake experiments, cells were grown on polystyrene dishes of 60 mm diameter to at least 80% confluence. […] Cells were lysed with 1 ml of 4 mmol/l perchloric acid and lysates subjected to LC-MS-MS quantification. Cellular protein content was determined after solubilization of perchloric acid precipitates with 1 ml of […] NaOH using the bicinchoninic assay (BCA Protein Assay Kit, Pierce).
Chromatographic separations were performed on Hypercarb (5 µm, 50×2.1 mm; Thermo Electron), Aquasil C18 (3 µm, 100×4.6 mm; Thermo Electron), or Hilic columns (5 µm, 100×3.0 mm; Waters Atlantis) by isocratic or gradient elution using 0.1% aqueous formic acid (A) and acetonitrile or methanol (B) as solvent system. For quantification, SRM transitions of a precursor ion [M+H]^+ into a specific fragment ion (peak area ratios relative to IS) were recorded in positive ESI mode at 1.0–1.5 mTorr collision pressure and 10–40 eV collision energy. […]

In series [3] the target is T3, norepinephrine transporter (NET) (Homo sapiens, UniProt P23975).
T3 construct: expressed in transfected cells; host or cells: HEK-293, stably transfected; cDNA from C; Pifl (University of Vienna)
T3 sequence (P23975 whole entry): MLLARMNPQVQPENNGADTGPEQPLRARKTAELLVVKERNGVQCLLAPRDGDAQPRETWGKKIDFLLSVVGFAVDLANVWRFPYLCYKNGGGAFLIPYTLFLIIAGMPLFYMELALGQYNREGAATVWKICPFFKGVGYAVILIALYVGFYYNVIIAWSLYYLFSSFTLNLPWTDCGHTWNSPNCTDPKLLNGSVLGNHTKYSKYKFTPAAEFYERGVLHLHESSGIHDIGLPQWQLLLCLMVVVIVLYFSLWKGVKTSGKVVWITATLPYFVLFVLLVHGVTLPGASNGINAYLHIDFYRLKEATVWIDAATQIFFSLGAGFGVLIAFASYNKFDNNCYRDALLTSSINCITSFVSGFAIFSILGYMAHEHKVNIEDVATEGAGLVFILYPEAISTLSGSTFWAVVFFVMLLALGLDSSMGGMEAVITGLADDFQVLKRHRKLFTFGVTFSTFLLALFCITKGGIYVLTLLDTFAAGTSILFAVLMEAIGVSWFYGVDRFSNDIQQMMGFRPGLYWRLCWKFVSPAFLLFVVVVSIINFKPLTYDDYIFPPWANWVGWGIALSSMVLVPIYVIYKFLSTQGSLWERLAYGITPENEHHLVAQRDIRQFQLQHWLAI
Description: Specific uptake into norepinephrine transporter (NET) transfected HEK-293 cells. The note with it: 10 µmol/l, 5 min incubation. In kind it is cell-based. The text has this: Pifl (University of Vienna).
1. Burnette WB, Bailey MD, Kukoyi S, Blakely RD, Trowbridge CG, et al. (1996) Human norepinephrine transporter kinetics using rotating disk electrode voltammetry. Anal Chem 68: 2932–2938. (0.90 MB TIF) Click here for additional data file.

Series [4] deals with HTZ-146 cells. In words: MTT reduction cell viability assay, HTZ-146 cells. The class given is cell-based, human. How it is done: (§2) Cell viability was assessed in HEK-293 cells, human dopaminergic neuroblastoma cells (SH-SY5Y) and human glioblastoma cells (HTZ-146) by the MTT test as described.[22] […] For indication of metabolic activity, cells were treated with MTT reagent (15 µl of 1 mg/ml stock solution per well) for 1 h, and after drying of culture plates for 1 h at 37°C, the resulting formazan dye was extracted with isopropanol/HCl (100 µl 0.04 mol/l per well) and absorbance was determined spectrophotometrically at 568 nm. Results were in agreement with the data obtained by the tryptan blue exclusion method (data not shown).

The subject of series [5] is SH-SY5Y cells. In words: MTT reduction cell viability assay, SH-SY5Y cells. The class given is cell-based, human. How it is done: as §2
Where [6] appears, read: pre-treated 1 h with 10 µmol/l cyclo(his-pro).

Regarding `CC1NCCc2cc(O)c(O)cc21` (centres unmarked) [salsolinol], the Km at 1 min in series [1] (human, pH 7.4) worked out at 123 µM; in series [2] (human, pH 7.4), 132 µM. In addition, in series [3], the “substrate of NET (specific uptake)” value is listed as “no substrates of NET”. Moreover, the EC50 in series [4] (Homo sapiens, 48 h, non-pretreated, read-out: EC50 (95% confidence interval), cell viability) was 138 µM; in series [5] (Homo sapiens, SH-SY5Y, 48 h, non-pretreated, read-out: EC50 (95% confidence interval), cell viability) it was 49 µM.
As to `O=C1NC(Cc2c[nH]cn2)C(=O)N2CCCC12` (centres unmarked) [cyclo(his-pro), histidyl-proline diketopiperazine], in series [1] (1 min of loading, mean (s.e.m.), listed as CHP), the Vmax is 1.0 (0.1) nmol/mg/min. Besides, the “clearance (Clin) of 400C relative to the 400R reference” value in series [1] (400C vs wild-type 400R) worked out at 70%. For the same compound, the “transport efficiency (Vmax/Km) of 400C relative to the 400R reference” value in series [1] (400C vs wild-type 400R) was determined as 48%. Further, the Clin is 17.6 (1.5)^# µl/mg/min in series [1] (mean (s.e.m.)); 17.6 (1.5) µl/mg/min in series [1] (mean (s.e.m.), listed as CHP); 25.5 (3.3) µl/mg/min in series [2] (incubation with 10 µmol/l, mean (s.e.m.)). For the same compound, in series [3], the “substrate of NET (specific uptake)” value is recorded as “no substrates of NET”. The “effect on glutamate-induced cytotoxicity” value in series [4] (setting [6]) and in series [5] (setting [6]) was “prevented” each time.
